According to US20220015365A1, “SYNERGISTIC HERBICIDE COMPOSITION OF BROAD-SPECTRUM FOR THE CONTROL OF WEEDS IN AGRICULTURAL CULTURES, USE OF SUCH COMPOSITION FOR PREPARATION OF PRODUCT, PRODUCT AND METHOD OF APPLICATION” (priority 2018, published 2022):

Columns and labels:
Brachiaria decumbens = assay: Pre-emergence weed control in soil prepared with weed seeds, synergy by Colby equation; type: in vivo; conditions: 35 days after application
Description: (§1) Protocol: in soil prepared with weed seeds (without germination), the composition of the present invention was applied. This test was performed for two species of weeds: Brachiaria decumbens and Panicum maximum. Data were collected 35 days after application of the composition to the soil and calculated. […] Colby equation: to use Colby's approach to evaluate synergy or antagonism in combinations, the components of the combination should be tested individually in their concentration of components in the same study as the combination. The results observed for the combination are compared with the expected results of the Colby Equation (Colby, 1967). Note that this equation is derived from the definition of the probability of independence. […] […].2. Criteria of the analysis: • If the value observed is higher than expected (Obs>E): synergy; • If the value observed is lower than expected (Obs<E): antagonism.

Panicum maximum = assay: as above; type: in vivo; conditions: 35 days after application
Description: as §1

Question: With `CC(C)c1nn(C(=O)NC(C)(C)C)c(=O)n1N` [Amicarbazone, 4-Amino-N-(tert-butyl)-3-isopropyl-5-oxo-4,5-dihydro-1H-1,2,4-triazole-1-carboxamide] as the molecule, how does the “Control % BRADC Observed” value (Brachiaria decumbens; Amicarbazone 238.00 g ai/ha) read?
Answer: 52.50%

Question: And the “Control % BRADC Observed” value (Brachiaria decumbens; Amicarbazone 442.00 g ai/ha)?
Answer: 66.25%

Question: What about the “Control % BRADC Observed” value (Brachiaria decumbens; Amicarbazone 515.60 g ai/ha) of the same molecule?
Answer: 62.50%

Question: What about the “Control % BRADC Observed” value (Brachiaria decumbens; Amicarbazone 571.15 g ai/ha) of the same molecule?
Answer: 77.50%

Question: And the “Control % PANMA Observed” value (Panicum maximum; Amicarbazone 238.00 g ai/ha)?
Answer: 83.25%

Question: What about the “Control % PANMA Observed” value (Panicum maximum; Amicarbazone 317.30 g ai/ha) of the same molecule?
Answer: 75.00%

Question: What about the “Control % PANMA Observed” value (Panicum maximum; Amicarbazone 442.00 g ai/ha) of the same molecule?
Answer: 0.00%

Question: And the “Control % PANMA Observed” value (Panicum maximum; Amicarbazone 515.60 g ai/ha)?
Answer: 90.00%

Question: And the “Control % PANMA Observed” value (Panicum maximum; Amicarbazone 571.15 g ai/ha)?
Answer: 91.25%

Question: And the “Control % PANMA Observed” value (Panicum maximum; Amicarbazone 589.30 g ai/ha)?
Answer: 90.00%

Question: And the “Control % PANMA Observed” value (Panicum maximum; Amicarbazone 594.00 g ai/ha)?
Answer: 86.25%

Question: And the “Control % PANMA Observed” value (Panicum maximum; Amicarbazone 687.50 g ai/ha)?
Answer: 95.00%

Question: What about the “Control % PANMA Observed” value (Panicum maximum; Amicarbazone 761.54 g ai/ha) of the same molecule?
Answer: 98.25%

Question: What about the “Control % PANMA Observed” value (Panicum maximum; Amicarbazone 792.00 g ai/ha) of the same molecule?
Answer: 88.75%

Question: With `C#CCN1C(=O)COc2cc(F)c(N3C(=O)C4=C(CCCC4)C3=O)cc21` [Flumioxazin, N-(7-Fluor-3,4-dihydro-3-oxo-4-prop-2-inyl-2H-1,4-benzoxazin-6-yl)cyclohex-1-en-1,2-dicarboximide] as the molecule, how does the “Control % BRADC Observed” value (Brachiaria decumbens; Flumioxazin 47.60 g ai/ha) read?
Answer: 81.25%

Question: What about the “Control % BRADC Observed” value (Brachiaria decumbens; Flumioxazin 103.10 g ai/ha) of the same molecule?
Answer: 83.75%

Question: And the “Control % BRADC Observed” value (Brachiaria decumbens; Flumioxazin 176.80 g ai/ha)?
Answer: 92.75%

Question: What about the “Control % BRADC Observed” value (Brachiaria decumbens; Flumioxazin 380.00 g ai/ha) of the same molecule?
Answer: 90.00%

Question: What about the “Control % PANMA Observed” value (Panicum maximum; Flumioxazin 24.75 g ai/ha) of the same molecule?
Answer: 81.25%

Question: And the “Control % PANMA Observed” value (Panicum maximum; Flumioxazin 33.00 g ai/ha)?
Answer: 88.75%

Question: And the “Control % PANMA Observed” value (Panicum maximum; Flumioxazin 47.60 g ai/ha)?
Answer: 89.50%

Question: And the “Control % PANMA Observed” value (Panicum maximum; Flumioxazin 63.46 g ai/ha)?
Answer: 97.00%

Question: What about the “Control % PANMA Observed” value (Panicum maximum; Flumioxazin 103.10 g ai/ha) of the same molecule?
Answer: 98.75%

Question: What about the “Control % PANMA Observed” value (Panicum maximum; Flumioxazin 137.50 g ai/ha) of the same molecule?
Answer: 97.50%

Question: And the “Control % PANMA Observed” value (Panicum maximum; Flumioxazin 176.80 g ai/ha)?
Answer: 97.55%

Question: And the “Control % PANMA Observed” value (Panicum maximum; Flumioxazin 235.70 g ai/ha)?
Answer: 99.00%

Question: And the “Control % PANMA Observed” value (Panicum maximum; Flumioxazin 380.00 g ai/ha)?
Answer: 97.50%

Question: And the “Control % PANMA Observed” value (Panicum maximum; Flumioxazin 507.70 g ai/ha)?
Answer: 98.75%
